How the values were obtained:
[1] = molecular target: T1, human 17βHSD type 1 (Homo sapiens, UniProt P14061); experiment: Inhibition of recombinant 17βHSD type 1, tritium-labeled substrate conversion; format: biochemical; conditions: for inhibition at 0.1 µM: 0.1 μmol · l^−1 test substance; for inhibition at 0.1 µM / inhibition at 1 µM: read-out: % of inhibition of human 17βHSD1; for inhibition at 1 µM: 1 μmol · l^−1 test substance; for IC50: read-out: 17βHSD1 IC50
T1 construct: made in house; expressing system suspended in buffer, not purified
T1 sequence (P14061 1-328): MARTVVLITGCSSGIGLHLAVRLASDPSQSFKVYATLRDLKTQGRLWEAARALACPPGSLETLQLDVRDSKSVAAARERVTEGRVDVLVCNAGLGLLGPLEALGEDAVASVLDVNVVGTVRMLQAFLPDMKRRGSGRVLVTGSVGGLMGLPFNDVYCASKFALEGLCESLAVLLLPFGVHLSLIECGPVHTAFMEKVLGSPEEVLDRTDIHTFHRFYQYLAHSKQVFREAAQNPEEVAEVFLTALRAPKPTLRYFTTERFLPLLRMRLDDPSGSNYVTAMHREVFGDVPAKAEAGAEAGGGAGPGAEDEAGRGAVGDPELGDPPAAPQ
Description: (§1) The inhibitory activity of the test substances was determined for individual isoenzymes from the 17βHSD family, specifically these were the types 1, 2, 3, 4, 5 and 7. Escherichia coli and mammalian cells expression systems were used for recombinant expression of individual isozymes of human 17βHSD. Only in the case of 17HSD5 the enzyme was partially purified and supernatant obtained by centrifugation of the bacterial lysate was used for testing. Systems expressing specific 17βHSD type were suspended in a reaction buffer and incubated with tritium-labeled substrates and respective cofactors at 37° C. in two parallel tests: the control arrangement (DMSO without the inhibitor) and the test arrangement (DMSO with the inhibitor). DMSO serves as a negative control in this case. After 20-30% of the substrate was converted by the activity of the enzyme to the product in a control test, both tests were terminated. Substrate and product from the test arrangement were isolated by SPE (solid phase extraction), and then separated by reverse phase HPLC. Substrate conversion was determined by integration of the signals of the substrate and product, and was expressed in %. For the purposes of the subsequent calculation of enzyme inhibition, the conversion of the control test was designated as 0% inhibition. All tests were performed in triplicates. IC50 values were subsequently determined by a standard method using the “One Ligand Binding” model of SigmaPlot kinetics module (Schustera et. al. J. Ster. Biochem. Mol. Biol. 2011, 125, 148; Möller et. al. Biioorg. Med. Chem. Lett. 2009, 19, 6740; Möller et. al. PLoS One, 2010, 5, 6, e10969).

[2] = molecular target: T2, human 17βHSD type 5 (Homo sapiens, UniProt P42330); experiment: Inhibition of recombinant 17βHSD type 5, tritium-labeled substrate conversion; format: biochemical; conditions: 1 μmol · l^−1 test substance
T2 construct: made in house; host or cells: bacteria (Escherichia coli); supernatant of the lysate
T2 sequence (P42330 1-323): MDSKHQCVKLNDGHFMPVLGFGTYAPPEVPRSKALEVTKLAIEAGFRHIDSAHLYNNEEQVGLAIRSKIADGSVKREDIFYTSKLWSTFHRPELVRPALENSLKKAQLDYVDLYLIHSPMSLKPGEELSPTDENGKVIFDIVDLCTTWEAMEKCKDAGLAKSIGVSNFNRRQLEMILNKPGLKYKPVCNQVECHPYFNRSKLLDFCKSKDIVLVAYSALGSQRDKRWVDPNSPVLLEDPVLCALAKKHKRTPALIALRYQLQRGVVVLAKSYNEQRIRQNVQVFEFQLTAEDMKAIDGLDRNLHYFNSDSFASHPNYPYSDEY
Description: as §1

[3] = tested on: CEM; experiment: MTT cytotoxicity assay, CEM; format: cell-based; conditions: Homo sapiens, CCRF-CEM
Description: (§2) Compounds 5, 6, 7, 9, 14 and 15 were used for evaluation of antitumor activity. MTT cytotoxicity assay was used in vitro on cell lines derived from normal tissues and from tumors. Specifically, these were the K562 line (human myeloid leukemia), K562-Tax (human myeloid leukemia resistant to taxol and overexpressing PgP protein for multidrug resistance), CEM (T-lymphoblastic leukemia), CEM-DNR bulk (T-lymphoblastic leukemia resistant doxorubicin, lacking the expression of the target gene for inhibitors of topoisomerase II alpha), A549 line (human lung adenocarcinoma), HCT116p53 wt (human colon cancer), HCT116p53−/− (human colon cancer, mutant p53), U2OS line of human osteosarcoma and two fibroblast lines MRC5 and BJ as examples of non-tumor cells. Expression characteristics, profiles of susceptibility to classical antitumor drugs and methodology of the MTT cytotoxicity assay were repeatedly published (e.g. Noskova et al. Neoplasma 2002, 49, 418; S̆arek et. al. J. Med. Chem. 2003, 46, 25, 5402).

[4] = tested on: CEM-DNR-bulk; experiment: MTT cytotoxicity assay, CEM-DNR-bulk; format: cell-based
Description: as §2

[5] = tested on: K562; experiment: MTT cytotoxicity assay, K562; format: cell-based; conditions: Homo sapiens
Description: as §2

[6] = tested on: K562-Tax; experiment: MTT cytotoxicity assay, K562-Tax; format: cell-based; conditions: Homo sapiens
Description: as §2

[7] = tested on: A549; experiment: MTT cytotoxicity assay, A549; format: cell-based; conditions: Homo sapiens
Description: as §2

[8] = tested on: HCT116p53 wt; experiment: MTT cytotoxicity assay, HCT116p53 wt; format: cell-based; conditions: Homo sapiens
Description: as §2

[9] = tested on: HCT116p53-/-; experiment: MTT cytotoxicity assay, HCT116p53-/-; format: cell-based; conditions: Homo sapiens
Description: as §2

[10] = tested on: U2OS; experiment: MTT cytotoxicity assay, U2OS; format: cell-based; conditions: Homo sapiens
Description: as §2

[11] = tested on: BJ; experiment: MTT cytotoxicity assay, BJ fibroblasts; format: cell-based; conditions: Homo sapiens, non-tumor fibroblasts
Description: as §2

[12] = tested on: MRCS; experiment: MTT cytotoxicity assay, MRC5 fibroblasts; format: cell-based; conditions: Homo sapiens, Fibroblast, non-tumor fibroblasts
Description: as §2

[13] = molecular target: T3, human 17βHSD1 (Homo sapiens, UniProt P14061); experiment: 17βHSD inhibition in CHO cells transfected with human 17βHSD1, E1 in supernatant; format: cell-based; parameters: expressed in transfected cells; conditions: 10 μmol·l^−1
T3 sequence (P14061 1-328): T1 sequence (P14061 1-328)
Description: (§3) For this experiment, non-cytotoxic concentrations of estrone derivative (10 μmol·l^−1) were used. E1 levels were determined by an immuno-enzymatic assay.

[14] = molecular target: T3, human 17βHSD1; experiment: 17βHSD inhibition in MCF-7 cells transfected with human 17βHSD1, E1 in supernatant; format: cell-based; parameters: expressed in transfected cells; host or cells: MCF-7; conditions: 10 μmol·l^−1
Description: as §3

Structure (SMILES)	inhibition at 0.1 µM [1] [%]	inhibition at 1 µM [1] [%]	IC50 [1] [µM]	% of inhibition of human 17βHSD5 [2] [%]	IC50 [3] [µM]	IC50 [4] [µM]	IC50 [5] [µM]	IC50 [6] [µM]	IC50 [7] [µM]	IC50 [8] [µM]	IC50 [9] [µM]	IC50 [10] [µM]	IC50 [11] [µM]	IC50 [12] [µM]	melting point [°C]	E1 in supernatant, CHO ([13]; 8 hr.) [pg/mL]	E1 in supernatant, CHO ([13]; 24 hr.) [pg/mL]	E1 in supernatant, MCF-7 ([14]; 8 hr.) [pg/mL]	E1 in supernatant, MCF-7 ([14]; 24 hr.) [pg/mL]
Cc1ccc(CC[C@@H]2CC(=O)[C@@]3(C)CC[C@@H]4c5ccc(O)cc5CC[C@H]4[C@H]23)cc1 [Compound 15, 3-Hydroxy-15β-(4-methylphenethyl)-estra-1,3,5(10)-trien-17-one]	87	100	0.008	86	21.7	24.1	23.8	13.8	28.2	28.3	29.4	28.9	27.9	19.6	159	750	554	719	948
C[C@]12CC[C@@H]3c4ccc(O)cc4CC[C@H]3[C@@H]1[C@H](CCc1ccc(O)cc1)CC2=O [Compound 14, 15β-(4-Hydroxyphenethyl)-3-hydroxy-estra-1,3,5(10)-trien-17-one]	72	97	–	42	25.8	30.8	22.6	18.9	41.3	28.2	32.6	44.6	≥ 50	50	–	3179	1054	4298	2626
C[C@]12CC[C@@H]3c4ccc(O)cc4CC[C@H]3[C@@H]1[C@H](CCc1ccc(F)cc1)CC2=O [Compound 5, 15β-(4-Fluorophenethyl)-3-hydroxy-estra-1,3,5(10)-trien-17-one]	72	92	0.055	70	25.2	28.2	25.2	19.3	35.8	29.2	30.5	30.4	24.3	18.4	164	3194	1576	3373	2236
C[C@]12CC[C@@H]3c4ccc(O)cc4CC[C@H]3[C@@H]1[C@H](CCc1ccc(Cl)cc1)CC2=O [Compound 6, 15β-(4-Chlorophenethyl)-3-hydroxy-estra-1,3,5(10)-trien-17-one]	90	97	0.009	90	16.3	24.6	26.9	13.2	35.8	29.3	30.8	27.9	28.8	21	168	4137	1804	4251	3323
